Legend:
Experiment in all cases: Test E greenhouse herbicide test, pre- and postemergence
Format in all cases: in vivo
[1] = tested on: arrowleaf sida (Sida rhombifolia)
Source text: (§1) Seeds of plant species selected from corn (Zea mays), soybean (Glycine max), velvetleaf (Abutilon theophrasti), lambsquarters (Chenopodium album), wild poinsettia (Euphorbia heterophylla), pigweed, palmer (palmer pigweed, Amaranthus palmeri), waterhemp (common waterhemp, Amaranthus rudis), surinam grass (Brachiaria decumbens), crabgrass, large (large crabgrass, Digitaria sanguinalis), crabgrass, Brazilian (Brazilian crabgrass, Digitaria horizontalis), panicum, fall (fall panicum, Panicum dichotomiflorum), foxtail, giant (giant foxtail, Setaria faberii), foxtail, green (green foxtail, Setaria viridis), goosegrass (Eleusine indica), johnsongrass (Sorghum halepense), ragweed (common ragweed, Ambrosia elatior), barnyardgrass (Echinochloa crus-galli), sandbur (southem sandbur, Cenchrus echinatus), arrowleaf sida (Sida rhombifolia), Italian ryegrass (Lolium multiflorum), dayflower (Virginia (VA) dayflower, Commelina virginica), field bindweed (Convolvulus arvensis), momingglory (Ipomoea coccinea), nightshade (eastern black nightshade, Solanum ptycanthum), kochia (Kochia scoparia), nutsedge, yellow (yellow nutsedge, Cyperus esculentus), horseweed (Conyza canadensis), and beggarticks (hairy beggarticks, Bidens pilosa), were planted into a silt loam soil and treated preemergence with test chemicals formulated in a non-phytotoxic solvent mixture which included a surfactant.
(§2) At the same time, plants from these crop and weed species and also waterhemp_RES1, (ALS & Triazine resistant common waterhemp, Amaranthus rudis), and waterhemp_RES2, (ALS & HPPD resistant common waterhemp, Amaranthus rudis) were planted in pots containing Redi-Earth® planting medium (Scotts Company, 14111 Scottslawn Road, Marysville, Ohio 43041) comprising spaghnum peat moss, vermiculite, wetting agent and starter nutrients were treated with postemergence applications of test chemicals formulated in the same manner. Plants ranged in height from 2 to 18 cm for postemergence treatments (1- to 4-leaf stage). Treated plants and controls were maintained in a greenhouse for 14 to 21 d, after which time all species were compared to controls and visually evaluated. Plant response ratings, summarized in Table E, are based on a scale of 0 to 100 where 0 is no effect and 100 is complete control. A dash (-) response means no test result.

[2] = tested on: goosegrass (Eleusine indica); settings: Preemergence
Source text: as §1, §2

[3] = tested on: waterhemp (common waterhemp, Amaranthus rudis)
Source text: as §1, §2

[4] = tested on: surinam grass (Brachiaria decumbens); settings: Preemergence
Source text: as §1, §2

[5] = tested on: johnsongrass (Sorghum halepense); settings: Preemergence
Source text: as §1, §2

[6] = tested on: nightshade (eastern black nightshade, Solanum ptycanthum); settings: Preemergence
Source text: as §1, §2

[7] = tested on: foxtail, giant (giant foxtail, Setaria faberii); settings: Preemergence
Source text: as §1, §2

[8] = tested on: ragweed (common ragweed, Ambrosia elatior)
Source text: as §1, §2

[9] = tested on: crabgrass, Brazilian (Brazilian crabgrass, Digitaria horizontalis)
Source text: as §1, §2

[10] = tested on: pigweed, palmer (palmer pigweed, Amaranthus palmeri)
Source text: as §1, §2

[11] = tested on: crabgrass, large (large crabgrass, Digitaria sanguinalis); settings: Preemergence
Source text: as §1, §2

[12] = tested on: dayflower (Virginia (VA) dayflower, Commelina virginica)
Source text: as §1, §2

[13] = tested on: horseweed (Conyza canadensis); settings: Preemergence
Source text: as §1, §2

corn (Zea mays) = tested on: corn (Zea mays)
Source text: as §1, §2

[14] = tested on: velvetleaf (Abutilon theophrasti); settings: Preemergence
Source text: as §1, §2

[15] = tested on: momingglory (Ipomoea coccinea); settings: Preemergence
Source text: as §1, §2

[16] = tested on: field bindweed (Convolvulus arvensis)
Source text: as §1, §2

[17] = 62 g ai/ha, Preemergence, scale 0 to 100 (0 no effect, 100 complete control)
[18] = Preemergence, 31 g ai/ha, scale 0 to 100, 0 no effect, 100 complete control
[19] = Preemergence, 125 g ai/ha, visual, scale 0 no effect to 100 complete control
[20] = Preemergence, 250 g ai/ha, visual, scale 0 no effect to 100 complete control
[21] = 62 g ai/ha, scale 0 to 100 (0 no effect, 100 complete control)
[22] = 31 g ai/ha, scale 0 to 100, 0 no effect, 100 complete control
[23] = 125 g ai/ha, visual, scale 0 no effect to 100 complete control
[24] = 250 g ai/ha, visual, scale 0 no effect to 100 complete control
[25] = 125 g ai/ha, Preemergence, scale 0 to 100 (0 no effect, 100 complete control)
[26] = 125 g ai/ha, scale 0 to 100 (0 no effect, 100 complete control)
[27] = 62 g ai/ha, Postemergence, scale 0 to 100 (0 no effect, 100 complete control)
[28] = 125 g ai/ha, Postemergence, scale 0 to 100 (0 no effect, 100 complete control)
[29] = 250 g ai/ha, Postemergence, scale 0 to 100 (0 no effect, 100 complete control)
[30] = Postemergence, 31 g ai/ha, visual, scale 0 no effect to 100 complete control

CC(=O)Oc1c(C)nn(C)c(=O)c1-c1c(C)sc2c(C)cc(C)cc12 [Compound 27]
65: Plant response rating, Arrowleaf Sida [1, 17] | Plant response rating, Dayflower, VA [12, 20]
50: Plant response rating, Crabgrass, Large [11, 21] | Plant response rating, Crabgrass, Large [11, 23] | Plant response rating, Velvetleaf [14, 22]
10: Plant response rating, Dayflower, VA [12, 17]
85: Plant response rating, Goosegrass [2, 24] | Plant response rating, Waterhemp [3, 25] | Plant response rating, Surinam Grass [4, 22] | Plant response rating, Pigweed, Palmer [10, 25] | Plant response rating, Pigweed, Palmer [10, 20] | Plant response rating, Morningglory [15, 21] | Plant response rating, Morningglory [15, 22]
95: Plant response rating, Waterhemp [3, 18] | Plant response rating, Waterhemp [3, 20] | Plant response rating, Surinam Grass [4, 21] | Plant response rating, Nightshade [6, 26] | Plant response rating, Foxtail, Giant [7, 22] | Plant response rating, Ragweed [8, 17] | Plant response rating, Ragweed [8, 18] | Plant response rating, Crabgrass, Brazil [9, 19] | Plant response rating, Crabgrass, Brazil [9, 20] | Plant response rating, Velvetleaf [14, 26]
75: Plant response rating, Arrowleaf Sida [1, 19] | Plant response rating, Goosegrass [2, 21] | Plant response rating, Johnsongrass [5, 21] | Plant response rating, Johnsongrass [5, 23]
40: Plant response rating, Arrowleaf Sida [1, 18] | Plant response rating, Field Bindweed [16, 17]
100: Plant response rating, Surinam Grass [4, 26] | Plant response rating, Surinam Grass [4, 24] | Plant response rating, Nightshade [6, 21] | Plant response rating, Foxtail, Giant [7, 23] | Plant response rating, Foxtail, Giant [7, 24] | Plant response rating, Ragweed [8, 25] | Plant response rating, Ragweed [8, 20] | Plant response rating, Horseweed [13, 21] | Plant response rating, Horseweed [13, 22] | Plant response rating, Horseweed [13, 23] | Plant response rating, Horseweed [13, 24] | Plant response rating, Velvetleaf [14, 24] | Plant response rating, Morningglory [15, 24]
30: Plant response rating, Dayflower, VA [12, 19]
70: Plant response rating, Johnsongrass [5, 22] | Plant response rating, Johnsongrass [5, 24] | Plant response rating, Crabgrass, Brazil [9, 17] | Plant response rating, Crabgrass, Brazil [9, 18] | Plant response rating, Field Bindweed [16, 19] | Plant response rating, Field Bindweed [16, 20]
60: Plant response rating, Pigweed, Palmer [10, 17]
80: Plant response rating, Goosegrass [2, 23] | Plant response rating, Velvetleaf [14, 21]
35: Plant response rating, Arrowleaf Sida [1, 20] | Plant response rating, Goosegrass [2, 22] | Plant response rating, Crabgrass, Large [11, 22]
98: Plant response rating, Nightshade [6, 24] | Plant response rating, Foxtail, Giant [7, 21]
0: Plant response rating, Dayflower, VA [12, 18] | Plant response rating, Corn (corn (Zea mays); [17]) | Plant response rating, Corn (corn (Zea mays); [18]) | Plant response rating, Corn (corn (Zea mays); [19]) | Plant response rating, Corn (corn (Zea mays); [20]) | Plant response rating, Field Bindweed [16, 18]
90: Plant response rating, Waterhemp [3, 17] | Plant response rating, Nightshade [6, 22] | Plant response rating, Crabgrass, Large [11, 24] | Plant response rating, Morningglory [15, 26]

CC(=O)Oc1c(C)nn(C)c(=O)c1-c1c(C)sc2ccc(C)cc12 [Compound 25]
0: Plant response rating, Dayflower, VA [12, 18] | Plant response rating, Corn (corn (Zea mays); [17]) | Plant response rating, Corn (corn (Zea mays); [18]) | Plant response rating, Corn (corn (Zea mays); [19]) | Plant response rating, Corn (corn (Zea mays); [20])
75: Plant response rating, Arrowleaf Sida [1, 27] | Plant response rating, Johnsongrass [5, 22] | Plant response rating, Ragweed [8, 18] | Plant response rating, Crabgrass, Brazil [9, 18] | Plant response rating, Pigweed, Palmer [10, 30]
40: Plant response rating, Arrowleaf Sida [1, 18] | Plant response rating, Crabgrass, Brazil [9, 27] | Plant response rating, Dayflower, VA [12, 27]
50: Plant response rating, Crabgrass, Brazil [9, 28] | Plant response rating, Crabgrass, Brazil [9, 29] | Plant response rating, Dayflower, VA [12, 28]
20: Plant response rating, Goosegrass [2, 22] | Plant response rating, Corn (corn (Zea mays); [27]) | Plant response rating, Corn (corn (Zea mays); [28])
98: Plant response rating, Nightshade [6, 24] | Plant response rating, Foxtail, Giant [7, 23] | Plant response rating, Ragweed [8, 25] | Plant response rating, Velvetleaf [14, 26] | Plant response rating, Field Bindweed [16, 17] | Plant response rating, Field Bindweed [16, 20]
5: Plant response rating, Dayflower, VA [12, 17]
10: Plant response rating, Dayflower, VA [12, 30] | Plant response rating, Corn (corn (Zea mays); [30])
100: Plant response rating, Waterhemp [3, 17] | Plant response rating, Waterhemp [3, 25] | Plant response rating, Waterhemp [3, 18] | Plant response rating, Waterhemp [3, 20] | Plant response rating, Foxtail, Giant [7, 24] | Plant response rating, Ragweed [8, 20] | Plant response rating, Pigweed, Palmer [10, 28] | Plant response rating, Pigweed, Palmer [10, 25] | Plant response rating, Pigweed, Palmer [10, 20] | Plant response rating, Horseweed [13, 21] | Plant response rating, Horseweed [13, 22] | Plant response rating, Horseweed [13, 23] | Plant response rating, Horseweed [13, 24] | Plant response rating, Velvetleaf [14, 21] | Plant response rating, Velvetleaf [14, 24] | Plant response rating, Morningglory [15, 24]
65: Plant response rating, Goosegrass [2, 21] | Plant response rating, Surinam Grass [4, 22] | Plant response rating, Pigweed, Palmer [10, 18] | Plant response rating, Dayflower, VA [12, 29] | Plant response rating, Morningglory [15, 22]
85: Plant response rating, Arrowleaf Sida [1, 29] | Plant response rating, Waterhemp [3, 28] | Plant response rating, Pigweed, Palmer [10, 29] | Plant response rating, Crabgrass, Large [11, 24]
90: Plant response rating, Arrowleaf Sida [1, 19] | Plant response rating, Goosegrass [2, 24] | Plant response rating, Waterhemp [3, 29] | Plant response rating, Surinam Grass [4, 26] | Plant response rating, Johnsongrass [5, 24] | Plant response rating, Nightshade [6, 22] | Plant response rating, Ragweed [8, 27] | Plant response rating, Ragweed [8, 28] | Plant response rating, Ragweed [8, 30] | Plant response rating, Crabgrass, Brazil [9, 17] | Plant response rating, Pigweed, Palmer [10, 17] | Plant response rating, Field Bindweed [16, 29] | Plant response rating, Field Bindweed [16, 30]
15: Plant response rating, Crabgrass, Large [11, 21] | Plant response rating, Dayflower, VA [12, 19] | Plant response rating, Corn (corn (Zea mays); [29])
80: Plant response rating, Arrowleaf Sida [1, 17] | Plant response rating, Arrowleaf Sida [1, 28] | Plant response rating, Goosegrass [2, 23] | Plant response rating, Waterhemp [3, 27] | Plant response rating, Waterhemp [3, 30] | Plant response rating, Surinam Grass [4, 21] | Plant response rating, Johnsongrass [5, 23] | Plant response rating, Nightshade [6, 21] | Plant response rating, Foxtail, Giant [7, 22] | Plant response rating, Pigweed, Palmer [10, 27] | Plant response rating, Crabgrass, Large [11, 23] | Plant response rating, Field Bindweed [16, 18]
70: Plant response rating, Morningglory [15, 21]
30: Plant response rating, Crabgrass, Brazil [9, 30] | Plant response rating, Dayflower, VA [12, 20]
95: Plant response rating, Arrowleaf Sida [1, 20] | Plant response rating, Surinam Grass [4, 24] | Plant response rating, Nightshade [6, 26] | Plant response rating, Foxtail, Giant [7, 21] | Plant response rating, Ragweed [8, 17] | Plant response rating, Ragweed [8, 29] | Plant response rating, Crabgrass, Brazil [9, 19] | Plant response rating, Crabgrass, Brazil [9, 20] | Plant response rating, Morningglory [15, 26] | Plant response rating, Field Bindweed [16, 27] | Plant response rating, Field Bindweed [16, 28]
60: Plant response rating, Arrowleaf Sida [1, 30] | Plant response rating, Johnsongrass [5, 21] | Plant response rating, Velvetleaf [14, 22] | Plant response rating, Field Bindweed [16, 19]
